ChEMBL document CHEMBL1201862, “PubChem BioAssay data set” (2004)
One block for each compound: values may come before it. Active and inactive are the calls of the source.

Legend:
[1] = test system: Streptococcus sp. 'group A'; experiment: Streptococcus pyogenes SK(-)GAS viability under kanamycin – luminescence, BacTiterGlo, confirmation, counter-screen for streptokinase expression inhibitor project, dose response (AID 1900); assay type: functional, organism-based
[2] = non-specific 3'UTR reporter inhibition in Clone20-Shn3RL – cell-based, Renilla luciferase, cherry-picked, counter-screen for Shn3 inhibitor project, dose response (AID 624133); assay type: functional
INS1 = experiment: INS-1E survival protection against cytokine death – cell-based, luminescence, retest, dose response (AID 449756); assay type: functional; conditions: Rattus norvegicus;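 also: cell death triggered by IL-1 beta plus TNF-alpha plus IFN-gamma mixture; protective hits raise ATP signal compared with cytokine alone wells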
Streptococcus = experiment: GAS UMAA2166 growth inhibition – luminescence, BacTiterGlo, counter-screen for streptokinase expression inhibitor project, dose response (AID 1915); assay type: functional, organism-based;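 also: potency for reduction of bacterial viability or growth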
[3] = NIH3T3 cell viability loss – ATP luminescence, mouse fibroblasts, counter-screen, dose response (AID 2010); assay type: functional, cell-based;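 also: cells exposed to compound for about 90 hours before reading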
[4] = reduction of Shn3 3'UTR-driven luciferase in osteoblasts – cell-based, Clone20 osteoblasts, firefly luciferase, cherry-picked, dose response (AID 624132); assay type: functional;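 also: firefly luciferase luminescence from reporter carrying the Shn3 3'UTR in osteoblasts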
[5] = loss of viability in HepG2 cells – cell-based, CellTiter-Glo, cherry-picked, cytotoxicity control for Shn3 inhibitor project, dose response (AID 624134); assay type: functional
[6] = Trypanosoma cruzi growth suppression in host cells – NIH3T3 host cells, beta-gal luminescence, confirmation (AID 2044); assay type: functional, cell-based;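 also: intracellular parasites grown in NIH/3T3 mouse fibroblasts as host cells; luminescent beta-galactosidase reporter signal from transgenic T. cruzi replicating inside host cells; inhibitors lower the luminescence signal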
[7] = target: Induced myeloid leukemia cell differentiation protein Mcl-1 (Homo sapiens, UniProt Q07820); assay type: functional
[8] = target: T1, Short transient receptor potential channel 4 (Mus musculus, UniProt Q9QUQ5); experiment: block of DAMGO-driven TRPC4 calcium entry – cell-based, HEK293 TRPC4/mu-opioid, Fluo-4 calcium, dose response (AID 434942); assay type: functional;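 also: potency of inhibitors blocking the TRPC4 calcium response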
T1 sequence (Q9QUQ5 whole entry): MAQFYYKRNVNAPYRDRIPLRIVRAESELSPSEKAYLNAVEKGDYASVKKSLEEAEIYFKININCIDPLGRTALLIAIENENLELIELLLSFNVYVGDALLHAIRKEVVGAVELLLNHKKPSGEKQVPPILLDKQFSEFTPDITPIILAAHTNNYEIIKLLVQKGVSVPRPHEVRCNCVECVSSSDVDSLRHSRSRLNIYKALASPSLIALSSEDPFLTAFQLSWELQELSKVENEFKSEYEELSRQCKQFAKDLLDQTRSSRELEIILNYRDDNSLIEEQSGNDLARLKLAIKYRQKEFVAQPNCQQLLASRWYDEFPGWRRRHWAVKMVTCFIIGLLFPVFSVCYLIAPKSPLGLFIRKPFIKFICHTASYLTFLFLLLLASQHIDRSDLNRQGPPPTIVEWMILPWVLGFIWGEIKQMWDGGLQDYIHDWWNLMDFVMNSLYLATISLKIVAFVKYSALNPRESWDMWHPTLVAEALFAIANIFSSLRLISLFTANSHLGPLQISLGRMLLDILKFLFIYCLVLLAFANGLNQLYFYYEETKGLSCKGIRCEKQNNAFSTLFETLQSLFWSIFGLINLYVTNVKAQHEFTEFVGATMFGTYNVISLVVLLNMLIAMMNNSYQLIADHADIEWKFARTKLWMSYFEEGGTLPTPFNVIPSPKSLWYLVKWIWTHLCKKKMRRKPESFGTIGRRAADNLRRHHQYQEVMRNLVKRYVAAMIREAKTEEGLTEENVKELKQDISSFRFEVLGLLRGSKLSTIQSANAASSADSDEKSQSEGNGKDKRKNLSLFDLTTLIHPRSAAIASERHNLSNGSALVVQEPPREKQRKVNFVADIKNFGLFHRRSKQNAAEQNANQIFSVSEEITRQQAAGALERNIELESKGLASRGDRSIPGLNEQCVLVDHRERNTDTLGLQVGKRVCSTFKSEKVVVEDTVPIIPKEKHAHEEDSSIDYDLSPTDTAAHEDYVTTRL

Fatty acid synthase [9] = target: T2, Fatty acid synthase (Homo sapiens, UniProt P49327); experiment: inhibition of human FAS-TE enzyme activity – biochemical, endpoint fluorescence intensity, uHTS hits, dose response (AID 624327); assay type: functional;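 also: fluorescence from hydrolysis of an O-methyl fluorescein acyl ester substrate by the enzyme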
Fatty acid synthase [10] = target: T2, Fatty acid synthase; experiment: inhibition of human FAS-TE enzyme activity – biochemical, kinetic fluorescence intensity, dose response (AID 624326); assay type: functional;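 also: rate of fluorescence rise from hydrolysis of a fluorogenic O-methyl fluorescein ester substrate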
Large T antigen = Large T antigen (Simian virus 40, UniProt P03070); assay type: functional, Betapolyomavirus macacae;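 also: Confirmatory-stage PubChem screen for compounds that inhibit SV40 T antigen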
[11] = NIH-3T3 fibroblast cytotoxicity, dose response, cytotoxicity control, cell-based, fluorescence, Alamar Blue, secondary assay (AID 2327); assay type: functional;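 also: NIH-3T3 mouse fibroblasts cultured with fluconazole at 8 µg/mL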
[12] = Luminescence Cell-Based Dose Confirmation HTS to Identify Inhibitors of Platelet Dense Granule Release. [Related pubchem assays: 1663 (Primary HTS), 1678 (Summary of Project)]; assay type: functional
[13] = target: Luciferin 4-monooxygenase (Photinus pyralis, UniProt P08659); experiment: inhibition of purified Photinus pyralis luciferase – biochemical, luminescence, dose response (AID 1891)
[14] = target: T3, Rac GTPase-activating protein 1 (Homo sapiens, UniProt Q9H0H5); experiment: blockers of MgcRacGAP-driven Rac1 GTP hydrolysis – biochemical, ADP Hunter fluorescence, primary and confirmatory, confirmation (AID 624330); assay type: functional
T3 sequence (Q9H0H5 whole entry): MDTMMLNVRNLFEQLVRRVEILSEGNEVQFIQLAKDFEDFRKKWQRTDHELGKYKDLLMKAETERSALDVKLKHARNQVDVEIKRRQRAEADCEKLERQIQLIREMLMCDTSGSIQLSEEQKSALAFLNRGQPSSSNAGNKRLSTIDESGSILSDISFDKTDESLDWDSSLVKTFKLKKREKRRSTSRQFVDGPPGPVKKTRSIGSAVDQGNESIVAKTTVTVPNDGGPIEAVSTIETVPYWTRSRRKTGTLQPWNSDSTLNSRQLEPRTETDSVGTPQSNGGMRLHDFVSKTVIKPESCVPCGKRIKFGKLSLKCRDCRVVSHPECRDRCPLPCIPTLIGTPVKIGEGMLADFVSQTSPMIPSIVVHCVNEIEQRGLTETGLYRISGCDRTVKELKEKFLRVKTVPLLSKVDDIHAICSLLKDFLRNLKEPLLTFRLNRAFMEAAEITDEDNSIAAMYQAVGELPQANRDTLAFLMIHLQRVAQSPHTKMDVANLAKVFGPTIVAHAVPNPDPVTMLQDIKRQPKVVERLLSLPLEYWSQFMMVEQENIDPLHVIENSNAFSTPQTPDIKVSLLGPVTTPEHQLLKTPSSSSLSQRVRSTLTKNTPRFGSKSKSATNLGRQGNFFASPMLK

[15] = P. falciparum Dd2 growth inhibitors, dose response, SYBR Green, cherry-picked samples (AID 1159567); assay type: functional, cell-based

Large T antigen, sequence (P03070 whole entry): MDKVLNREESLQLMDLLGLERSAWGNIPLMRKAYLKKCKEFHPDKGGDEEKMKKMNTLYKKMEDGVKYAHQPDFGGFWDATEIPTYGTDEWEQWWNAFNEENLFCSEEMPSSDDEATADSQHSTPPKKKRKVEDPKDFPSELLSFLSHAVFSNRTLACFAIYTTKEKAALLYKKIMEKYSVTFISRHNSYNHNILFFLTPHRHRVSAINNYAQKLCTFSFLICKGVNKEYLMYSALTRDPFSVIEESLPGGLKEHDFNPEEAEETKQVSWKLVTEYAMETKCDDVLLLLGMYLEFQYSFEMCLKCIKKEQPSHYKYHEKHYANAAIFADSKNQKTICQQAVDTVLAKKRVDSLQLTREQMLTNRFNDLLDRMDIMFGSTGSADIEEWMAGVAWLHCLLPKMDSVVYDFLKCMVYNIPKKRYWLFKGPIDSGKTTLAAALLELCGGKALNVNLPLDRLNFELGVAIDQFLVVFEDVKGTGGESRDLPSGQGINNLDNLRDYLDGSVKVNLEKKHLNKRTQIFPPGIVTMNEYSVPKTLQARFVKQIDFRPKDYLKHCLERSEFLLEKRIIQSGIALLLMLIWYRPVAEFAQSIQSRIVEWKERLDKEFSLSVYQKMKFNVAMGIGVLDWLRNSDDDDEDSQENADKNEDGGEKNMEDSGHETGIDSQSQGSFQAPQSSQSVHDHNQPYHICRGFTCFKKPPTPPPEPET
T2 sequence (P49327 whole entry): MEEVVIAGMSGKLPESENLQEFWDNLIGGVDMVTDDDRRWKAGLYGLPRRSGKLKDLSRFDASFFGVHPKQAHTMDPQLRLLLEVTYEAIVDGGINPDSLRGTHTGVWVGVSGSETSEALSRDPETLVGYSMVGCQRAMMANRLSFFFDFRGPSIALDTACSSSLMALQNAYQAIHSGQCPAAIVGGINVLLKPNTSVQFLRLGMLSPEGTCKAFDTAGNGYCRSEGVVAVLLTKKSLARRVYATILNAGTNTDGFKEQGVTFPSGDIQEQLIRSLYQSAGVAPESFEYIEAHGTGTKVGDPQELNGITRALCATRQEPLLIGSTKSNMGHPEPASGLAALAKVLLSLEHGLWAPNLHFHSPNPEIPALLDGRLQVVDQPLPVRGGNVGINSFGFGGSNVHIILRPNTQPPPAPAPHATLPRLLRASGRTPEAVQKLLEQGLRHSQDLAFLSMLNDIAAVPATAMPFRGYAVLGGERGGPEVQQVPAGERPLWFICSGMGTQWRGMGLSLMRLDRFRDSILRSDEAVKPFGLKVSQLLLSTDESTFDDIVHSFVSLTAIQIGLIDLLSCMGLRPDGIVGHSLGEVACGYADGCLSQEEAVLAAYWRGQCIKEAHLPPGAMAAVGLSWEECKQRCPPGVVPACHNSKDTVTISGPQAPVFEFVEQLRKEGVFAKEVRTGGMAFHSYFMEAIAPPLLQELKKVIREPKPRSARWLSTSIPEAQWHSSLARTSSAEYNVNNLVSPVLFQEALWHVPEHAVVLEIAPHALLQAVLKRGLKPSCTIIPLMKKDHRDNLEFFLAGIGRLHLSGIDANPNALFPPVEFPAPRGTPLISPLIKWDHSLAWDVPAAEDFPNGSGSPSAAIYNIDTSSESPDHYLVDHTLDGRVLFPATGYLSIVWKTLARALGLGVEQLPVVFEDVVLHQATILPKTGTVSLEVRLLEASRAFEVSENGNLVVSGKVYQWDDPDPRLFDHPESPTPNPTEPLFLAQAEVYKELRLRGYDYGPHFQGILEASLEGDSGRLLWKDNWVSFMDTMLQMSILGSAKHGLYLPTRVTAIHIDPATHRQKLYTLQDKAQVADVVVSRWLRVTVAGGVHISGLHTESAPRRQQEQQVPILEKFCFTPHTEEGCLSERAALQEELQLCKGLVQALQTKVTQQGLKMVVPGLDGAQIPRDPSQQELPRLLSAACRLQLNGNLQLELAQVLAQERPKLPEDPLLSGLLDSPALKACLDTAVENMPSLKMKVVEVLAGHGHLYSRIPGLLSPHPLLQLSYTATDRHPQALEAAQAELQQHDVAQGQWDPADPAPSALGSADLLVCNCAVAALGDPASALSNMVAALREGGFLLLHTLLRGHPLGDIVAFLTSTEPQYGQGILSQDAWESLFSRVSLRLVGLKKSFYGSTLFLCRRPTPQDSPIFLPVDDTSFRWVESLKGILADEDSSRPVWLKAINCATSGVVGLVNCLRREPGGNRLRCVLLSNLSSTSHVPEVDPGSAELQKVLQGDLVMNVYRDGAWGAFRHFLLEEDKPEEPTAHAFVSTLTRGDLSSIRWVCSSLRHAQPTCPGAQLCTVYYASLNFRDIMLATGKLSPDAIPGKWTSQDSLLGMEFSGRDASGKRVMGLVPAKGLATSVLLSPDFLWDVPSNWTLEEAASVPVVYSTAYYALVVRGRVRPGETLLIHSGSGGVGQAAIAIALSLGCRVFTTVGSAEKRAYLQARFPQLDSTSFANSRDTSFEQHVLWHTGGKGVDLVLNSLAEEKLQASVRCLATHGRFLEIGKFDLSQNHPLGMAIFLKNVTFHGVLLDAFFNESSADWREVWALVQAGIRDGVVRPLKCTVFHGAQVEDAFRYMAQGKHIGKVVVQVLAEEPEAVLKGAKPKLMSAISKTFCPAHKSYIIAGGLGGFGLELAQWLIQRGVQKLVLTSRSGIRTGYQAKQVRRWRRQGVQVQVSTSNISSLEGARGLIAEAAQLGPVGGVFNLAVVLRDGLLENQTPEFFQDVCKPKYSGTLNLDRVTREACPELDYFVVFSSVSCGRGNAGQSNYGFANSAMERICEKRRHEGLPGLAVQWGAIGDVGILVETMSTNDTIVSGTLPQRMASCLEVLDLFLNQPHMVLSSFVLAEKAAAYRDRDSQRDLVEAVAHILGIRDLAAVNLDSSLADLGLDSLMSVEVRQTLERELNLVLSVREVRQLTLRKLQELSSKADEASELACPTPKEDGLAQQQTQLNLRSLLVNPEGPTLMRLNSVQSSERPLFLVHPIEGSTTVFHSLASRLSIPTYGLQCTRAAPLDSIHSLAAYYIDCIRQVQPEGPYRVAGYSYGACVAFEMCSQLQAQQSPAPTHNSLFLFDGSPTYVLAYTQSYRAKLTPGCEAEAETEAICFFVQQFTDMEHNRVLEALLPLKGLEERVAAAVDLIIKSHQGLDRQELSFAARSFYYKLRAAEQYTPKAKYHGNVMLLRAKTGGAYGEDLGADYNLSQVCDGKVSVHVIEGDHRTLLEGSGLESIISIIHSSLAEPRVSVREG
Luciferin 4-monooxygenase, sequence (P08659 whole entry): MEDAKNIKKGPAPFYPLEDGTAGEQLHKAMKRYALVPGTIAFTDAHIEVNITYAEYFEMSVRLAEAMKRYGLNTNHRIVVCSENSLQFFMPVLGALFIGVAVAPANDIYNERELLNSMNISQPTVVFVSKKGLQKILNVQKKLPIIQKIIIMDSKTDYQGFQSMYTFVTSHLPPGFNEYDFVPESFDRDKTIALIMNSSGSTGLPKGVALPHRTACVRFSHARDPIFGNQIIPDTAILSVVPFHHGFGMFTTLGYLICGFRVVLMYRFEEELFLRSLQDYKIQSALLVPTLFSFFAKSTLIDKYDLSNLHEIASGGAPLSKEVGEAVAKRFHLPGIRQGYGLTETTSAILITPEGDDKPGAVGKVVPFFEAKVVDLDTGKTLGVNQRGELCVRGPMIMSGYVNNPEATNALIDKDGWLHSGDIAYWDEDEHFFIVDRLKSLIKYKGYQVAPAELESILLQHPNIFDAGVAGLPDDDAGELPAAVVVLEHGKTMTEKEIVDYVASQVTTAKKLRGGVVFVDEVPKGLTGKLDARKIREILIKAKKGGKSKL
Induced myeloid leukemia cell differentiation protein Mcl-1, sequence (Q07820 whole entry): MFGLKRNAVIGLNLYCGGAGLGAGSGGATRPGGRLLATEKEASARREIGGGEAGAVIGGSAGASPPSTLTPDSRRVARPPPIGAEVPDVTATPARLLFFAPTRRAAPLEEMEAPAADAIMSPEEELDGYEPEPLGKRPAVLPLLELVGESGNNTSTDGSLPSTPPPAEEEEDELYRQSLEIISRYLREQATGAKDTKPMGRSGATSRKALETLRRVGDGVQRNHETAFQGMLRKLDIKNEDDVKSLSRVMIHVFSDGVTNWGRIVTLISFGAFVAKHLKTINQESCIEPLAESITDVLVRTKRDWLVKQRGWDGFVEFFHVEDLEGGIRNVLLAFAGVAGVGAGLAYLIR

SMILES: COc1ccccc1C(NC(C)=O)c1cc(Cl)c2cccnc2c1O (configuration not stated)
EC50 [1]: 2.9 µM (active) | AC50 [2]: 1.27 µM (active) | AC50 (INS1): 1.38 µM (active) | EC50 (Streptococcus): 2.95 µM (active) | EC50 [3]: 2.85 µM (active) | AC50 [4]: 2.56 µM (active) | AC50 [5]: 2.3 µM (active) | EC50 [6]: 0.647 µM (active)

SMILES: Cn1cccc1/C=N/N1CCN(Cc2ccccc2)CC1
IC50 (Large T antigen): 17.6 µM (active)

SMILES: Cc1ccc(N/N=C/c2ccc3c(c2)OCCO3)cc1Cl
EC50 [11]: 40.1 µM (active) | EC50 [12]: 21 µM (active) | EC50 [13]: > 112 µM (not active)

SMILES: O=C1CCCC(O)=C1/C=N/c1ccc(O)cc1
IC50 (Large T antigen): 12.3 µM (active) | IC50 [14]: 16.7 µM (active)

SMILES: COc1ccc2c3c([nH]c2c1)[C@@H](CO)N(C(=O)Nc1cccc(F)c1)CC31CN(CC2CCOCC2)C1
AC50 [15]: 4.22 µM (active)

SMILES: C/C=C/c1ccc([C@H]2[C@H](CO)N(S(=O)(=O)Cc3ccccc3)C23CN(C(=O)C2CCCC2)C3)cc1
AC50 [15]: 5.3 µM (active)

SMILES: COc1ccc(S(=O)(=O)N(C)C[C@H]2Oc3ncc(-c4ccncc4)cc3C(=O)N([C@H](C)CO)C[C@@H]2C)cc1
AC50 [15]: 6.55 µM (active)

SMILES: COc1ccc(C#Cc2ccc3c(c2)[C@@H]2[C@@H](CCN2C(=O)C2CCC2)[C@H](CO)N3)cc1
AC50 [15]: 5.78 µM (active)

Next, values leading:

IC50 [7]: 2.92 µM (active)
SMILES: COc1ccccc1C(=O)N=Nc1c(O)[nH]c2ccc([N+](=O)[O-])cc12

EC50 [8]: 6.68 µM (active)
SMILES: Cc1ccc(C(=O)C2=C(O)C(=O)N(Cc3cccnc3)C2c2ccc(Cl)c(Cl)c2)o1 (configuration not stated)

IC50 (Fatty acid synthase [9]): 4.81 µM (active) | IC50 (Fatty acid synthase [10]): 7.99 µM (active)
SMILES: COc1cccc(-n2c(CN3CCN(c4ccccc4)CC3)nc3ccc([N+](=O)[O-])cc3c2=O)c1

IC50 (Fatty acid synthase [9]): 19.4 µM (active) | IC50 (Fatty acid synthase [10]): 13.2 µM (active)
SMILES: O=C(Nc1cccc(C(=O)O)c1)/C(=C/c1cccc([N+](=O)[O-])c1)NC(=O)c1cccc(Br)c1

IC50 (Fatty acid synthase [9]): 8.34 µM (active) | IC50 (Fatty acid synthase [10]): 8.05 µM (active)
SMILES: CC1(C)CC(=O)C=C(c2ccc(-c3cnn(Cc4ccccc4)c3)cc2)C1=O

IC50 (Large T antigen): 15.2 µM (active)
SMILES: CC/C(=N\c1ccccc1O)C1=C(O)CC(c2ccccc2)CC1=O (configuration not stated)
